Assay results as given in patent US5681723A, “Mutant interleukin 6 with improved biological activity over wild interleukin 6” (Instituto di Ricerche di Biologia Molecolare P. Angelett …, priority 1992, dated 1997).

Columns and labels:
[1] = tested on: murine hybridoma cell line 7TD1; test: HGF (Hybridoma Growth Factor) assay, growth of hIL-6 dependent hybridoma 7TD1; type: cell-based; conditions: murine hybridoma 7TD1, HGF assay
Protocol: Mutant interleukin 6 according to the present invention has also been tested using the classical HGF (Hybridoma Growth Factor) assay for its ability to stimulate growth of the hIL-6 dependent murine hybridoma cell line 7TD1 (Van Snick, J., Cayphas, S., Vink, A., Uyttenhove, C., Coulie, P. G. and Simpson, R. J. (1986) Proc. Natl. Acad. Sci. USA, 83, 9679-9683). The assay was performed taking into account the indications of Fiorillo, M. T., Cabibbo, A., Iacopetti, P., Fattori, E. and Ciliberto, G. (1992) Eur. J. Immunol. 22, 2609-2615.

soluble hIL6 receptor = test: hIL-6R binding (affinity for the soluble hIL6 receptor); parameters: species or system human; conditions: mutant hIL6 produced in E. coli
Source text: Affinity for the soluble hIL6 receptor of mutant hIL6 produced in E. coli

[2] = tested on: human hepatoma cell line Hep3B; test: CRP-CAT transcription induction assay in transfected human hepatoma Hep3B cells; type: cell-based; conditions: ratio of amounts of wild type hIL-6 and mutant giving half maximal stimulation of CRP-CAT in Hep3B cells; wild type = 100%
Protocol: The biological activity of the mutant of interest was determined first of all on cells of human origin. The activity of hIL-6 on human cells was assayed for its ability to enhance transcription from acute phase gene promoters in cells of hepatic origin (Morrone, G., Ciliberto, G., Oliviero, S., Arcone, R., Dente, L., Content, J. and Cortese, R. (1988) J. Biol. Chem. 263, 12554-12558). […]
In particular, human Hep3B cells were transfected with 45-50/ ug of the plasmid -219 CRP-CAT containing the IL-6 responsive element of the CRP promoter gene. […] After 16-18 hours, precipitates were removed, cells were trypsinized, pooled, counted and plated in equal number (10^5 to 3×10^5) in 5 cm diameter petri dishes; 7-9 hours after plating, cells were induced for 36-40 hours with increasing amounts of mutant or wild-type hIL-6. […]
The assay was carried out in duplicate (in triplicate in case of wild type hIL-6) with serial dilutions of two to four independent preparations of mutant. The activity of the mutant, expressed as a percent of wild type hIL-6, was calculated as the ratio between the amount of wild type hIL-6 and the amount of the mutant under examination necessary to give half maximal stimulation.

Substance: S176R: mutant human interleukin 6 with arginine in position 176 in place of serine of wild interleukin 6 [Mutation S176R]
- ability to stimulate growth of hIL-6 dependent 7TD1 cells, with respect to the wild type [1]: significant increase in biological activity
- hIL-6R binding (% of wt hIL-6) (soluble hIL6 receptor): 320 ± 87 % of wt hIL-6
- Biological activity (% of wt hIL-6) [2]: 370±90 % of wt hIL-6
